Laboratory results as given in ChEMBL document CHEMBL1137893, “Active site inhibitors of HCV NS5B polymerase. The development and pharmacophore of 2-thienyl-5,6-dihydroxypyrimidine-4-carboxylic acid” (Bioorg Med Chem Lett, 2004).

The molecules below were run against RNA-directed RNA polymerase (Hepacivirus hominis) (UniProt O39930) (assay: Percentage inhibition of RNA dependent RNA polymerase Nonstructural protein 5B of hepatitis C virus at 50 uM).
RNA-directed RNA polymerase (Hepacivirus hominis), sequence (O39930 1-591): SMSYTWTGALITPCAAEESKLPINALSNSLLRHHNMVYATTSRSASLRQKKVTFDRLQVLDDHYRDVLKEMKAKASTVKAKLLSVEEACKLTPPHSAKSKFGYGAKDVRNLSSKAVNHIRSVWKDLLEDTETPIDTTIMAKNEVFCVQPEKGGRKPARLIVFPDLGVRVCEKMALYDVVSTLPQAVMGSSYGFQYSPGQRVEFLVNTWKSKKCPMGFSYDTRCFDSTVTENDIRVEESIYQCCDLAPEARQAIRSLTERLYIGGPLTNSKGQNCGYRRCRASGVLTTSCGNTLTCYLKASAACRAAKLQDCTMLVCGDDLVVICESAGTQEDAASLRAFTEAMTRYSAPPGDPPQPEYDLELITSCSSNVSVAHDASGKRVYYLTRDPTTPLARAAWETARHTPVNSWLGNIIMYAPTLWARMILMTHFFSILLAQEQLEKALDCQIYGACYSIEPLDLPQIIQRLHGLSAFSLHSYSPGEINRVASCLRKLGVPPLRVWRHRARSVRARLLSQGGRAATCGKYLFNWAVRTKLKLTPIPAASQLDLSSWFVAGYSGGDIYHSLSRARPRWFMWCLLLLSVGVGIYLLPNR

| inhibition | Compound |
| --- | --- |
| < 30% | COC(=O)c1nc(-c2cccs2)nc(O)c1O |
| < 30% | O=P(O)(O)c1nc(-c2cccs2)nc(O)c1O |
| < 30% | O=C(NS(=O)(=O)Cc1ccccc1)c1nc(-c2cccs2)nc(O)c1O |
| < 30% | O=C(O)c1nc(-c2cccs2)ncc1O |
| < 30% | Oc1nc(-c2cccs2)nc(-c2nn[nH]n2)c1O |
| < 30% | O=C(O)c1[nH]c(-c2cccs2)nc2ncnc1-2 |
| < 30% | CS(=O)(=O)Nc1nc(-c2cccs2)nc(C(=O)O)c1O |

| Compound | inhibition |
| --- | --- |
| O=C(O)c1nc(-c2ccccn2)nc(O)c1O | < 30% |

These molecules were tested against RNA-directed RNA polymerase (Hepacivirus hominis, UniProt O39930) (assay: inhibitory concentration against RNA dependent RNA polymerase Nonstructural protein 5B of hepatitis C virus).
RNA-directed RNA polymerase, sequence (O39930 whole entry): as the sequence (O39930 1-591) above

| IC50 | Compound |
| --- | --- |
| 49 µM | CS(=O)(=O)c1nc(-c2cccs2)nc(C(=O)O)c1O |
| 50 µM | COc1nc(-c2cccs2)nc(C(=O)O)c1O |
| 5.7 µM | O=C(O)C(=O)/C=C(\O)c1ccccc1 |
| 30 µM | O=C(O)c1nc(-c2ccccc2)nc(O)c1O |
| 6.2 µM | O=C(NS(=O)(=O)C(F)(F)F)c1nc(-c2cccs2)[nH]c(=O)c1O |

| Compound | IC50 |
| --- | --- |
| O=C(O)c1nc(-c2cccs2)nc(O)c1O | 2.6 µM |
| Cn1c(-c2cccs2)nc(C(=O)O)c(O)c1=O | 4.2 µM |
